Test results reported in publication PMC6063448, “Antimicrobial activity of linear lipopeptides derived from BP100 towards plant pathogens” (PLoS ONE, 2018).

Legend:
Type in all cases: cell-based
[1] = test system: Erwinia amylovora PMV6076; experiment: MIC, growth inhibition in microtiter plates (TSB); conditions: Ea, 25°C, 48 h, OD 600 nm, lowest concentration with no growth, given as interval of tested concentrations, three replicates, experiment repeated twice
Description: (§1) The following plant pathogenic bacterial strains were used: Erwinia amylovora PMV6076 (Institut National de la Recherche Agronomique, Angers, France), Pseudomonas syringae pv. syringae EPS94 (Institut de Tecnologia Agroalimentària, Universitat de Girona, Spain), Xanthomonas axonopodis pv. vesicatoria 2133–2, Pseudomonas syringae pv. actinidiae Psa3700.1.1, Xanthomonas fragariae Xf349-9A (Instituto Valenciano de Investigaciones Agrarias, Valencia, Spain), and Xanthomonas arboricola pv. pruni CFBP5563 (Collection Française de Bactéries associées aux Plantes, Angers, France). All bacteria except for X. fragariae were stored in Luria Bertani (LB) broth supplemented with glycerol (20%) and maintained at -80°C. For X. fragariae, Medium B [46] was used instead of LB. E. amylovora, X. arboricola pv. pruni, P. syringae pv. syringae and P. syringae pv. actinidiae were scrapped from the agar media after growing for 24 h at 25°C, and X. axonopodis pv. vesicatoria and X. fragariae after growing for 48 h at 25°C. The cell material was suspended in sterile water to obtain a suspension of 10^8 CFU mL^-1.
(§2) Lyophilized peptides were solubilized in sterile Milli-Q water to a final concentration of 1 mM and filter sterilized through a 0.22-μm pore filter. […] For antibacterial activity 20 μL of each dilution were mixed in a microtiter plate well with 20 μL of the corresponding suspension of the bacterial indicator, 160 μL of Trypticase Soy Broth (TSB) (BioMèrieux, France) to a total volume of 200 μL. For antifungal activity 20 μL of each stock solution were mixed in a microtiter plate well with 80 μL of the corresponding suspension of the fungal pathogen and 100 μL of double concentrated Potato Dextrose Broth (PDB) to a total volume of 200 μL containing 0.003% w/v of chloramphenicol to prevent bacterial contamination.
(§3) Three replicates for each combination of strain, compound and concentration were used. Microbial growth was determined by optical density measurement at 600 nm (Bioscreen C, Labsystem, Helsinki, Finland). For antibacterial activity microplates were incubated at 25°C with 20 s shaking before hourly absorbance measurement for 48 h. For antifungal activity microplates were incubated at 22°C with 1 min shaking before absorbance measurement that were done every two hours during seven days. The experiment was repeated twice. The MIC was taken as the lowest compound concentration with no growth at the end of the experiment.

[2] = test system: Pseudomonas syringae pv. actinidiae Psa3700.1.1; experiment: MIC, growth inhibition in microtiter plates (TSB); conditions: Psa, 25°C, 48 h, OD 600 nm, lowest concentration with no growth, given as interval of tested concentrations, three replicates, experiment repeated twice
Description: as §1, §2, §3

[3] = test system: Pseudomonas syringae pv. syringae EPS94; experiment: MIC, growth inhibition in microtiter plates (TSB); conditions: Pss, 25°C, 48 h, OD 600 nm, lowest concentration with no growth, given as interval of tested concentrations, three replicates, experiment repeated twice
Description: as §1, §2, §3

[4] = test system: Xanthomonas arboricola pv. pruni CFBP5563; experiment: MIC, growth inhibition in microtiter plates (TSB); conditions: Xap, 25°C, 48 h, OD 600 nm, lowest concentration with no growth, given as interval of tested concentrations, three replicates, experiment repeated twice
Description: as §1, §2, §3

[5] = test system: Xanthomonas axonopodis pv. vesicatoria 2133–2; experiment: MIC, growth inhibition in microtiter plates (TSB); conditions: Xav, 25°C, 48 h, OD 600 nm, lowest concentration with no growth, given as interval of tested concentrations, three replicates, experiment repeated twice
Description: as §1, §2, §3

[6] = test system: Xanthomonas fragariae Xf349-9A; experiment: MIC, growth inhibition in microtiter plates (TSB); conditions: Xf, 25°C, 48 h, OD 600 nm, lowest concentration with no growth, given as interval of tested concentrations, three replicates, experiment repeated twice
Description: as §1, §2, §3

[7] = test system: Fusarium oxysporum f. sp. lycopersici FOL 3 race 2; experiment: MIC, antifungal growth inhibition in microtiter plates (PDB); conditions: Fo, 22°C, seven days, OD 600 nm, lowest concentration with no growth, given as interval of tested concentrations, three replicates, experiment repeated twice
Protocol: (§4) The following plant pathogenic fungal strains were used: Penicillium expansum EPS26 (Institut de Tecnologia Agroalimentària, Universitat de Girona, Spain) and Fusarium oxysporum f. sp. lycopersici FOL 3 race 2 (ATCC 201829, American Type Culture Collection,Virginia, EEUU). Strains were cultured on potato dextrose agar (PDA) plates (Difco). Conidia from P. expansum and microconidia from F. oxysporum were obtained from 5–7 day-old agar Potato Dextrose (PDA) cultures after growth at 25°C. Inoculum was prepared by scraping spore material from culture surfaces with a cotton swab and resuspending it in distilled water containing 0.5‰ of tween 80. The suspensions were filtered through Miracloth (Merk, Millipore) and the concentration of conidia was determined using a hemacytometer and adjusted to 10^4 conidia mL^-1 for F. oxysporum and to 10^3 conidia mL^-1 for P. expansum.
as §2, §3

[8] = test system: Penicillium expansum EPS26; experiment: as above; conditions: Pe, 22°C, seven days, OD 600 nm, lowest concentration with no growth, given as interval of tested concentrations, three replicates, experiment repeated twice
Protocol: as §4, §2, §3

| Compound | MIC [1] [µM] | MIC [2] [µM] | MIC [3] [µM] | MIC [4] [µM] | MIC [5] [µM] | MIC [6] [µM] | MIC [7] [µM] | MIC [8] [µM] |
| --- | --- | --- | --- | --- | --- | --- | --- | --- |
| CCCCCCCCCCCC(=O)NCCCC[C@H](NC(=O)[C@@H](NC(=O)[C@H](CCCCN)NC(=O)[C@H](CCCCN)NC(=O)[C@H](Cc1ccccc1)NC(=O)[C@H](CC(C)C)NC(=O)[C@H](CCCCN)NC(=O)[C@H](CCCCN)NC(C)=O)[C@@H](C)CC)C(=O)N[C@@H](CCCCN)C(=O)N[C@@H](Cc1ccc(O)cc1)C(=O)N[C@@H](CC(C)C)C(N)=O [BP399, Ac-KKLFKKIK(COC11H23)KYL-NH2] | >25 | 3.1 to 6.2 | 3.1 to 6.2 | 1.6 to 3.1 | 0.8 to 1.6 | 3.1 to 6.2 | 6.2 to 12.5 | 12.5 to 25 |
| CCCCCC(=O)NCCCC[C@H](NC(C)=O)C(=O)N[C@@H](CCCCN)C(=O)N[C@@H](CC(C)C)C(=O)N[C@@H](Cc1ccccc1)C(=O)N[C@@H](CCCCN)C(=O)N[C@@H](CCCCN)C(=O)N[C@H](C(=O)N[C@@H](CC(C)C)C(=O)N[C@@H](CCCCN)C(=O)N[C@@H](Cc1ccc(O)cc1)C(=O)N[C@@H](CC(C)C)C(N)=O)[C@@H](C)CC [BP368, Ac-K(COC5H11)KLFKKILKYL-NH2] | 6.2 to 12.5 | 6.2 to 12.5 | 6.2 to 12.5 | 3.1 to 6.2 | 3.1 to 6.2 | 6.2 to 12.5 | 0.8 to 1.6 | 1.6 to 3.1 |
| CCCC(=O)NCCCC[C@H](NC(=O)[C@H](Cc1ccccc1)NC(=O)[C@H](CC(C)C)NC(=O)[C@H](CCCCN)NC(=O)[C@H](CCCCN)NC(C)=O)C(=O)N[C@@H](CCCCN)C(=O)N[C@H](C(=O)N[C@@H](CC(C)C)C(=O)N[C@@H](CCCCN)C(=O)N[C@@H](Cc1ccc(O)cc1)C(=O)N[C@@H](CC(C)C)C(N)=O)[C@@H](C)CC [BP384, Ac-KKLFK(COC3H7)KILKYL-NH2] | 3.1 to 6.2 | 6.2 to 12.5 | 6.2 to 12.5 | 3.1 to 6.2 | 1.6 to 3.1 | 1.6 to 3.1 | 1.6 to 3.1 | 12.5 to 25 |
| CCCCCC(=O)N[C@@H](CCCCN)C(=O)N[C@@H](CCCCN)C(=O)N[C@@H](CC(C)C)C(=O)N[C@@H](Cc1ccccc1)C(=O)N[C@@H](CCCCN)C(=O)N[C@@H](CCCCN)C(=O)N[C@H](C(=O)N[C@@H](CC(C)C)C(=O)N[C@@H](CCCCN)C(=O)N[C@@H](Cc1ccc(O)cc1)C(=O)N[C@@H](CC(C)C)C(N)=O)[C@@H](C)CC [BP367, C5H11CO-KKLFKKILKYL-NH2] | 3.1 to 6.2 | 3.1 to 6.2 | 3.1 to 6.2 | 3.1 to 6.2 | 3.1 to 6.2 | 3.1 to 6.2 | 1.6 to 3.1 | 12.5 to 25 |
| CCCCCCCCCCCC(=O)NCCCC[C@H](NC(=O)[C@H](Cc1ccccc1)NC(=O)[C@H](CC(C)C)NC(=O)[C@H](CCCCN)NC(=O)[C@H](CCCCN)NC(C)=O)C(=O)N[C@@H](CCCCN)C(=O)N[C@H](C(=O)N[C@@H](CC(C)C)C(=O)N[C@@H](CCCCN)C(=O)N[C@@H](Cc1ccc(O)cc1)C(=O)N[C@@H](CC(C)C)C(N)=O)[C@@H](C)CC [BP396, Ac-KKLFK(COC11H23)KILKYL-NH2] | >25 | >25 | >25 | 1.6 to 3.1 | 3.1 to 6.2 | 1.6 to 3.1 | 6.2 to 12.5 | 12.5 to 25 |
| CCCC(=O)NCCCC[C@H](NC(=O)[C@H](CCCCN)NC(=O)[C@H](CCCCN)NC(C)=O)C(=O)N[C@@H](Cc1ccccc1)C(=O)N[C@@H](CCCCN)C(=O)N[C@@H](CCCCN)C(=O)N[C@H](C(=O)N[C@@H](CC(C)C)C(=O)N[C@@H](CCCCN)C(=O)N[C@@H](Cc1ccc(O)cc1)C(=O)N[C@@H](CC(C)C)C(N)=O)[C@@H](C)CC [BP382, Ac-KKK(COC3H7)FKKILKYL-NH2] | 6.2 to 12.5 | 6.2 to 12.5 | 6.2 to 12.5 | 6.2 to 12.5 | 6.2 to 12.5 | 1.6 to 3.1 | 0.8 to 1.6 | 3.1 to 6.2 |
| CCCCCCCCCCCC(=O)NCCCC[C@H](NC(=O)[C@H](CCCCN)NC(=O)[C@H](CCCCN)NC(=O)[C@H](Cc1ccccc1)NC(=O)[C@H](CC(C)C)NC(=O)[C@H](CCCCN)NC(=O)[C@H](CCCCN)NC(C)=O)C(=O)N[C@@H](CC(C)C)C(=O)N[C@@H](CCCCN)C(=O)N[C@@H](Cc1ccc(O)cc1)C(=O)N[C@@H](CC(C)C)C(N)=O [BP398, Ac-KKLFKKK(COC11H23)LKYL-NH2] | >25 | 3.1 to 6.2 | 3.1 to 6.2 | 1.6 to 3.1 | 0.8 to 1.6 | 3.1 to 6.2 | 6.2 to 12.5 | >25 |
| CCCCCCCCCCCC(=O)NCCCC[C@H](NC(=O)[C@H](CC(C)C)NC(=O)[C@H](CCCCN)NC(=O)[C@H](CCCCN)NC(C)=O)C(=O)N[C@@H](CCCCN)C(=O)N[C@@H](CCCCN)C(=O)N[C@H](C(=O)N[C@@H](CC(C)C)C(=O)N[C@@H](CCCCN)C(=O)N[C@@H](Cc1ccc(O)cc1)C(=O)N[C@@H](CC(C)C)C(N)=O)[C@@H](C)CC [BP395, Ac-KKLK(COC11H23)KKILKYL-NH2] | 12.5 to 25 | 3.1 to 6.2 | 3.1 to 6.2 | 1.6 to 3.1 | 1.6 to 3.1 | 1.6 to 3.1 | 6.2 to 12.5 | 12.5 to 25 |
| CCCCCCCCCCCC(=O)NCCCC[C@H](NC(C)=O)C(=O)N[C@@H](CCCCN)C(=O)N[C@@H](CC(C)C)C(=O)N[C@@H](Cc1ccccc1)C(=O)N[C@@H](CCCCN)C(=O)N[C@@H](CCCCN)C(=O)N[C@H](C(=O)N[C@@H](CC(C)C)C(=O)N[C@@H](CCCCN)C(=O)N[C@@H](Cc1ccc(O)cc1)C(=O)N[C@@H](CC(C)C)C(N)=O)[C@@H](C)CC [BP392, Ac-K(COC11H23)KLFKKILKYL-NH2] | >25 | >25 | >25 | 3.1 to 6.2 | 3.1 to 6.2 | 0.8 to 1.6 | 6.2 to 12.5 | >25 |
| CCCCCC(=O)NCCCC[C@H](NC(=O)[C@@H](NC(=O)[C@H](CCCCN)NC(=O)[C@H](CCCCN)NC(=O)[C@H](Cc1ccccc1)NC(=O)[C@H](CC(C)C)NC(=O)[C@H](CCCCN)NC(=O)[C@H](CCCCN)NC(C)=O)[C@@H](C)CC)C(=O)N[C@@H](CCCCN)C(=O)N[C@@H](Cc1ccc(O)cc1)C(=O)N[C@@H](CC(C)C)C(N)=O [BP375, Ac-KKLFKKIK(COC5H11)KYL-NH2] | 3.1 to 6.2 | 3.1 to 6.2 | 3.1 to 6.2 | 3.1 to 6.2 | 6.2 to 12.5 | 3.1 to 6.2 | 0.4 to 0.8 | 3.1 to 6.2 |
